# Measured values taken from patent publication US20240158446A1, “CYCLIC COMPOUND HAVING SELECTIVE INHIBITORY ACTION ON KRAS OVER HRAS AND NRAS” (CHUGAI SEIYAKU KABUSHIKI KAISHA, priority 2021, published 2024).
# Like-named read-outs stand apart in the source and are kept apart here. Where a SMILES comes first, the peptide text is derived from it. Bridges are numbered along the chain shown (N, C = ends). [ ]: non-standard residue; d: D form. The star is where a group is joined. hPhe(3-Cl-4-CF3) = N[C@@H](CCc1ccc(C(F)(F)F)c(Cl)c1)C(=O)O; NPrPhe(4-CF3) = CCCN[C@@H](Cc1ccc(C(F)(F)F)cc1)C(=O)O; Pip(4,4-F2) = O=C(O)[C@@H]1CC(F)(F)CCN1; NMeGly(cPent) = CN[C@H](C(=O)O)C1CCCC1; Pro(4,4-F2) = O=C(O)[C@@H]1CC(F)(F)CN1; NMeD = CN[C@@H](CC(=O)O)C(=O)O; NMeL = CN[C@@H](CC(C)C)C(=O)O; Morpholide = C1CN(*)CCO1; NMeA = CN[C@@H](C)C(=O)O; Ac5c = NC1(C(=O)O)CCCC1; Aze = O=C(O)[C@@H]1CCN1; Ac4c = NC1(C(=O)O)CCC1; NEtG = CCNCC(=O)O; Sar = CNCC(=O)O
# Columns and labels:
# [1] = biological target: GDP-bound KRAS wild-type protein (Homo sapiens, UniProt P01116); test: Binding to KRAS by surface plasmon resonance (SPR), Single Cycle Kinetics; conditions: GDP-bound KRAS wild-type protein, read-out: KRAS KD
# Sequence of GDP-bound KRAS wild-type protein (P01116 whole entry): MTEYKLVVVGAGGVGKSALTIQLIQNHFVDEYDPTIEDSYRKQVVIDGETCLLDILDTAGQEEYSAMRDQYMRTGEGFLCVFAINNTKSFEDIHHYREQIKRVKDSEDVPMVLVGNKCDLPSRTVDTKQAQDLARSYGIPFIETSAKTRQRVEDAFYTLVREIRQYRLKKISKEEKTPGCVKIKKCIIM
# [2] = biological target: GDP-bound HRAS wild-type protein (Homo sapiens, UniProt P01112); test: Binding to HRAS by surface plasmon resonance (SPR), Single Cycle Kinetics; conditions: for HRAS/KRAS (ratio of KD value for HRAS to KD value for KRAS) / HRAS/KRAS (ratio of KD value with respect to HRAS to KD value with respect to KRAS): SPR, GDP-bound HRAS wild-type protein vs GDP-bound KRAS wild-type protein
# Sequence of GDP-bound HRAS wild-type protein (P01112 whole entry): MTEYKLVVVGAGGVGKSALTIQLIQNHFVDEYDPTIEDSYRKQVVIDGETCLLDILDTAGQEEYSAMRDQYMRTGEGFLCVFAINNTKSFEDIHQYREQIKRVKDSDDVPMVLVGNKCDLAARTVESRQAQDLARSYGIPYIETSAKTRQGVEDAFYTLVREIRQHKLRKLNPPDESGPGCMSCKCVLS
# [3] = biological target: GDP-bound NRAS wild-type protein (Homo sapiens, UniProt P01111); test: Binding to NRAS by surface plasmon resonance (SPR), Single Cycle Kinetics; conditions: for NRAS/KRAS (ratio of KD value for NRAS to KD value for KRAS) / NRAS/KRAS (ratio of KD value with respect to NRAS to KD value with respect to KRAS): SPR, GDP-bound NRAS wild-type protein vs GDP-bound KRAS wild-type protein
# Sequence of GDP-bound NRAS wild-type protein (P01111 whole entry): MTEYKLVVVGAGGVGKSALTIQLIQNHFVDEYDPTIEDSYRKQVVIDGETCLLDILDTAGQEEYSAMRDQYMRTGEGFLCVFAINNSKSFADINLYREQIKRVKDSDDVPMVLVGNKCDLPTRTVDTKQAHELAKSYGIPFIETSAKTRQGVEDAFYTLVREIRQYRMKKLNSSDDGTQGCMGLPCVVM
# [4] = SPR Single Cycle Kinetics, 1:1 binding model
Structure (SMILES),"Kd ([1]; SPR, Single Cycle Kinetics)",HRAS/KRAS (ratio of KD value for HRAS to KD value for KRAS) [2],NRAS/KRAS (ratio of KD value for NRAS to KD value for KRAS) [3],"Kd [1, 4]",HRAS/KRAS (ratio of KD value with respect to HRAS to KD value with respect to KRAS) [2],NRAS/KRAS (ratio of KD value with respect to NRAS to KD value with respect to KRAS) [3],"HRAS/KRAS (ratio of KD value with respect to GDP-bound HRAS wild-type protein to KD value with respect to KRAS) ([2]; SPR KD ratio HRAS/KRAS, class symbols)","NRAS/KRAS (ratio of KD value with respect to GDP-bound NRAS wild-type protein to KD value with respect to KRAS) ([3]; SPR KD ratio NRAS/KRAS, class symbols)"
CCO[C@@H]1C[C@H]2C(=O)NC3(CCC3)C(=O)N(C)[C@@H](C3CCCC3)C(=O)N(C)[C@H](C(=O)N(C)C)CC(=O)N(C)[C@@H](Cc3ccc(C)cc3)C(=O)N[C@@H]([C@@H](C)CC)C(=O)N(C)CC(=O)N(C)[C@H]3CCCCCN(C3=O)[C@@H](Cc3ccc(C(F)(F)F)cc3)C(=O)N(C)CC(=O)N[C@@H](CCc3cc(F)c(C(F)(F)F)c(F)c3)C(=O)N2C1 [PP0943],1.1 nM,B (a compound having 3 or more and less than 10 is denoted as B),B (a compound having 3 or more and less than 10 is denoted as B),,,,,
CCO[C@@H]1C[C@H]2C(=O)NC3(CCC3)C(=O)N(C)[C@@H](C3CCCC3)C(=O)N(C)[C@H](C(=O)N3CCOCC3)CC(=O)N(C)[C@@H](CC(C)C)C(=O)N[C@@H](C3CC(F)(F)C3)C(=O)N(C)CC(=O)N(C)[C@H]3CCCCN(C3=O)[C@@H](Cc3ccc(C(F)(F)F)cc3)C(=O)N(C)CC(=O)N[C@@H](CCc3cc(F)c(C(F)(F)F)c(F)c3)C(=O)N2C1 [PP0807],,,,0.059 nM,B (a compound having 3 or more and less than 10 is denoted as B),B (a compound having 3 or more and less than 10 is denoted as B),,
"CCCN1C(=O)[C@@H]2CCN2C(=O)[C@H](C)N(C)C(=O)[C@H]([C@@H](C)CC)NC(=O)[C@H](CC(C)C)N(C)C(=O)C[C@@H](C(=O)N2CCOCC2)NC(=O)[C@H](C2CCCC2)N(C)C(=O)C2(CCC2)NC(=O)[C@@H]2CC(F)(F)CN2C(=O)[C@H](CCc2ccc(C(F)(F)F)c(Cl)c2)NC(=O)CN(C)C(=O)[C@@H]1Cc1ccc(C(F)(F)F)cc1 [PP0346] ([NMeL]I[NMeA][Aze][NPrPhe(4-CF3)][Sar][hPhe(3-Cl-4-CF3)][Pro(4,4-F2)][Ac4c][NMeGly(cPent)]D-Morpholide; lactam N-11)",,B (a compound having 3 or more and less than 10 is denoted as B),C (A compound having a KD ratio of 0.1 or more and less than 3 is denoted as C),1.2 nM,,,,
"CCCN1C(=O)CN(C)C(=O)CN(CC)C(=O)[C@H]([C@@H](C)CC)NC(=O)[C@H](CC(C)C)N(C)C(=O)C[C@@H](C(=O)N2CCOCC2)N(C)C(=O)[C@H](C2CCCC2)N(C)C(=O)C2(CCCC2)NC(=O)[C@@H]2CC(F)(F)CCN2C(=O)[C@H](CCc2ccc(C(F)(F)F)c(Cl)c2)NC(=O)CN(C)C(=O)[C@@H]1Cc1ccc(C(F)(F)F)cc1 [PP0298] ([NMeL]I[NEtG][Sar][NPrPhe(4-CF3)][Sar][hPhe(3-Cl-4-CF3)][Pip(4,4-F2)][Ac5c][NMeGly(cPent)][NMeD]-Morpholide; lactam N-11)",,C (A compound having a KD ratio of 0.1 or more and less than 3 is denoted as C),B (a compound having 3 or more and less than 10 is denoted as B),3 nM,,,,
CCO[C@@H]1C[C@H]2C(=O)NC3(CC(C)(C)C3)C(=O)N(C)[C@@H](C3CCCC3)C(=O)N(C)[C@H](C(=O)N3CCCCC3)CC(=O)N(C)[C@H]3CCC/C=C/c4ccc(cc4)C[C@@H](C(=O)N(C)CC(=O)N[C@@H](CCc4ccc(Cl)c(Cl)c4)C(=O)N2C1)N1CC/C=C\C[C@@H](C1=O)N(C)C(=O)CN(C)C(=O)[C@H]([C@@H](C)CC)NC3=O [PP2578],,,,0.27 nM,,,A (a compound having 10 or more and less than 20 is denoted as A),AA (a compound having 20 or more is denoted as AA)
CCCN1C(=O)[C@H](C2CCCC2)N(C)C(=O)C2(CCC2)NC(=O)[C@@H]2C[C@@H](OCC)CN2C(=O)[C@H](CCc2cc(F)c(C(F)(F)F)c(F)c2)NC(=O)CN(C)C(=O)[C@H](Cc2ccc(C(F)(F)F)cc2)N2CCCC[C@@H](C2=O)N(C)C(=O)CN(C)C(=O)[C@H]([C@@H](C)CC)NC(=O)[C@H](CC(C)C)N(C)C(=O)C[C@H]1C(=O)N1CCOCC1 [PP0649],,,,0.75 nM,B (a compound having 3 or more and less than 10 is denoted as B),C (A compound having a KD ratio of 0.1 or more and less than 3 is denoted as C),,
CCO[C@@H]1C[C@H]2C(=O)NC3(CCC3)C(=O)N(C)[C@@H](C3CCCC3)C(=O)N(C)[C@H](C(=O)N3CCOCC3)CC(=O)N(C)[C@@H](COC)C(=O)N[C@@H]([C@@H](C)CC)C(=O)N(C)CC(=O)N(C)[C@H]3CCCCCN(C3=O)[C@@H](Cc3ccc(C(F)(F)F)cc3)C(=O)N(C)CC(=O)N[C@@H](CCc3ccc(C)cc3)C(=O)N2C1 [PP0850],12 nM,B (a compound having 3 or more and less than 10 is denoted as B),B (a compound having 3 or more and less than 10 is denoted as B),,,,,
CCO[C@@H]1C[C@H]2C(=O)NC3(CCC3)C(=O)N(C)[C@@H](C3CCCC3)C(=O)N(C)[C@H](C(=O)N3CCOCC3)CC(=O)N(C)[C@@H](CC)C(=O)N[C@@H]([C@@H](C)CC)C(=O)N(C)CC(=O)N(C)[C@H]3CC(C)=CCN(C3=O)[C@@H](Cc3ccc(C(F)(F)F)cc3)C(=O)N(C)CC(=O)N[C@@H](CCc3cc(F)c(C(F)(F)F)c(F)c3)C(=O)N2C1 [PP1041],0.57 nM,C (A compound having a KD ratio of 0.1 or more and less than 3 is denoted as C),C (A compound having a KD ratio of 0.1 or more and less than 3 is denoted as C),,,,,
CC(C)C[C@H]1C(=O)N[C@@H](C2CCC2)C(=O)N(C)CC(=O)N(C)[C@H]2CCCCCN(C2=O)[C@@H](Cc2ccc(C(F)(F)F)cc2)C(=O)N(C)CC(=O)N[C@@H](CCc2cc(F)c(C(F)(F)F)c(F)c2)C(=O)N2CCC[C@H]2C(=O)NC2(CCCC2)C(=O)N(C)[C@@H](C2CCCC2)C(=O)N(C)[C@H](C(=O)N2CCOCC2)CC(=O)N1C [PP0522],,,,2.8 nM,B (a compound having 3 or more and less than 10 is denoted as B),B (a compound having 3 or more and less than 10 is denoted as B),,
CC[C@H](C)[C@@H]1NC(=O)[C@H](CC(C)C)N(C)C(=O)C[C@@H](C(=O)N2CCOCC2)N(C)C(=O)[C@H](C2CCCC2)N(C)C(=O)C2(CCCC2)NC(=O)[C@@H]2CCCN2C(=O)[C@H](CCc2cc(F)c(C(F)(F)F)c(F)c2)NC(=O)CN(C)C(=O)[C@H](Cc2ccc(C(F)(F)F)cc2)N2CCCC[C@@H](C2=O)N(C)C(=O)CN(C)C1=O [PP0552],,,,0.052 nM,B (a compound having 3 or more and less than 10 is denoted as B),B (a compound having 3 or more and less than 10 is denoted as B),,
C=CCCC[C@H]1C(=O)N[C@@H]([C@@H](C)CC)C(=O)N(C)CC(=O)N(C)[C@H]2CCCCN(C2=O)[C@@H](Cc2ccc(C(F)(F)F)cc2)C(=O)N(C)CC(=O)N[C@@H](CCc2cc(F)c(C(F)(F)F)c(F)c2)C(=O)N2C[C@H](OCC)C[C@H]2C(=O)N[C@](C)(CC=C)C(=O)N(C)[C@@H](C2CCCC2)C(=O)N(C)[C@H](C(=O)N2CCOCC2)CC(=O)N1C [PP0876],0.4 nM,C (A compound having a KD ratio of 0.1 or more and less than 3 is denoted as C),C (A compound having a KD ratio of 0.1 or more and less than 3 is denoted as C),,,,,
CCO[C@@H]1C[C@H]2C(=O)NC3(CC(C)(C)C3)C(=O)N(C)[C@@H](C(CC)CC)C(=O)N(C)[C@H](C(=O)N(C)C)CC(=O)N(C)[C@@H](CC3CCC3)C(=O)N[C@@H]([C@@H](C)CC)C(=O)N(C)CC(=O)N(C)[C@H]3C/C=C\CCN(C3=O)[C@@H](Cc3ccc(C(F)(F)F)cc3)C(=O)N(C)CC(=O)N[C@@H](CCc3cc(F)c(C(F)(F)F)c(F)c3)C(=O)N2C1 [PP2133],0.19 nM,A (a compound having 10 or more and less than 20 is denoted as A),AA (a compound having 20 or more is denoted as AA),,,,,
CCO[C@@H]1C[C@H]2C(=O)NC3(CCCC3)C(=O)N(C)[C@@H](C3CCCC3)C(=O)N(C)[C@H](C(=O)N(C)C)CC(=O)N(C)[C@@H](CC(C)C)C(=O)N[C@@H]([C@@H](C)CC)C(=O)N(C)CC(=O)N(C)[C@H]3CCCCCN(C3=O)[C@@H](Cc3ccc(C(F)(F)F)cc3)C(=O)N(C)CC(=O)N[C@@H](CCc3cc(F)c(C(F)(F)F)c(F)c3)C(=O)N2C1 [PP0468],,,,0.8 nM,B (a compound having 3 or more and less than 10 is denoted as B),B (a compound having 3 or more and less than 10 is denoted as B),,
CCC[C@H]1C(=O)N[C@@H]([C@@H](C)CC)C(=O)N(C)CC(=O)N(C)[C@H]2C/C=C\CCN(C2=O)[C@@H](Cc2ccc(C)cc2)C(=O)N(C)CC(=O)N[C@@H](CCc2ccc(C(F)(F)F)c(OC)c2)C(=O)N2C[C@H](OCC)C[C@H]2C(=O)NC2(CC(C)(C)C2)C(=O)N(C)[C@@H](C(CC)CC)C(=O)N(C)[C@H](C(=O)N(C)C)CC(=O)N1C [PP2068],0.36 nM,B (a compound having 3 or more and less than 10 is denoted as B),A (a compound having 10 or more and less than 20 is denoted as A),,,,,
